Measurements published in US10829473B2, “Modulators of the cystic fibrosis transmembrane conductance regulator protein and methods of use” (AbbVie Overseas S.Á.R.L., priority 2017, dated 2020).
Read-outs that look alike come from different tables or passages of the source.

Biological target: T1, F508delCFTR (Homo sapiens, UniProt P13569, DEL508-508)
T1 construct: expressed in transfected cells; host or cells: CFBE41o- human lung derived epithelial cells (CFBE41o-F508delCFTR-HRP), doxycycline-inducible
T1 sequence (P13569 with tags, fused parts or gaps DEL508-508): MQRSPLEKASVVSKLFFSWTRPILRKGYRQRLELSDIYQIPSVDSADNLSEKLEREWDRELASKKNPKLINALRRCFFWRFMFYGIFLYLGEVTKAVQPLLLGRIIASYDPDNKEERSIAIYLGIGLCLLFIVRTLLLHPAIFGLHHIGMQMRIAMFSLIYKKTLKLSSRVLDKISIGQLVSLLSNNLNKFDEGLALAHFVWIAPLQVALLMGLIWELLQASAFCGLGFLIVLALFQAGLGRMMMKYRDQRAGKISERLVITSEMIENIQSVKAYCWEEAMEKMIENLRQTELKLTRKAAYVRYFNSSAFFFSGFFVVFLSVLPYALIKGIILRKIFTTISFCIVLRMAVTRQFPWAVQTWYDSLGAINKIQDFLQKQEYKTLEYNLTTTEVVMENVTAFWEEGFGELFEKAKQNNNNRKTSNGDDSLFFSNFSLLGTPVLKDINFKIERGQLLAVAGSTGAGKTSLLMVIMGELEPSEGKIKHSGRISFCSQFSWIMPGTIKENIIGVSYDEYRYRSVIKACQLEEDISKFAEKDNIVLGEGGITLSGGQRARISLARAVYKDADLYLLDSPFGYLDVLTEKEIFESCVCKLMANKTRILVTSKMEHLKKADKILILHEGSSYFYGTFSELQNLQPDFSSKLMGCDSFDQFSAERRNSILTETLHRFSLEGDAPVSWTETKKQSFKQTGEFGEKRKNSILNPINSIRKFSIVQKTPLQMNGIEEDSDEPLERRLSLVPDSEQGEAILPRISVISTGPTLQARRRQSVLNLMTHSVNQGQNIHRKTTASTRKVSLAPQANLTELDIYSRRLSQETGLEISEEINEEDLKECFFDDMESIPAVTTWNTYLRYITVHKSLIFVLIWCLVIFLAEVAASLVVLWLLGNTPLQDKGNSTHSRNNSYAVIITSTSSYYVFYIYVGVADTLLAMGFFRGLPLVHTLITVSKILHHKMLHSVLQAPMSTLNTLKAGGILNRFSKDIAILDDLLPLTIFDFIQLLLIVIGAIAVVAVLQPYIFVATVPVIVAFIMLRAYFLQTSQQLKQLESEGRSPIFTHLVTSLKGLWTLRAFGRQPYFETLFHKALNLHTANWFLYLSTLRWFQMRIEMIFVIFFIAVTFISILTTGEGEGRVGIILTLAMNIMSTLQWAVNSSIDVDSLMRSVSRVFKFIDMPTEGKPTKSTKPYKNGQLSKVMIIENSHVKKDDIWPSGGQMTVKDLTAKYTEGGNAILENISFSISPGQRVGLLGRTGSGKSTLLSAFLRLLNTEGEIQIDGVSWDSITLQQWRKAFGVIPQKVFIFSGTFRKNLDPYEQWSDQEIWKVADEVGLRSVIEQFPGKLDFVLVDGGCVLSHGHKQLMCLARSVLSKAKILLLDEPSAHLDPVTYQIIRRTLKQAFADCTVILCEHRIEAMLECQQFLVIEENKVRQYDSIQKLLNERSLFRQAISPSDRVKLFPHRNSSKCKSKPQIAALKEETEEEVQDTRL
Test: Cell Surface Expression-Horse Radish Peroxidase (CSE-HRP) Assay;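 for EC50 (with co-corrector): co-corrector chromenyl benzoic acid corrector at 2 or 3 µM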;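 for Maximum % activity (without co-corrector): % of on-plate positive control chromenyl benzoic acid corrector at 2 or 3 µM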
Assay type: cell-based
Details: for Maximum % activity (with co-corrector) / Emax: maximum at any tested concentration; for Emax: read-out: Maximum % activity (without co-corrector)
Outline: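 Corrector compounds were given as 8-point 3-fold series from 20 or 30 μM, with or without a 2 μM co-corrector, for 18-24 h at 33 °C. Surface HRP was read by luminol luminescence as % of positive control; variable-Hill-slope sigmoidal fitting gave EC50 from triplicate plates.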

[1] = test compound alone, without co-corrector, read-out: EC50 (without co-corrector)
[2] = with co-corrector, read-out: EC50 (with co-corrector)

| Compound | EC50 [1] [µM] | Maximum % activity (with co-corrector) (with co-corrector) | EC50 [2] [µM] | Emax (without co-corrector) [%] |
| --- | --- | --- | --- | --- |
| COc1cccc(OC)c1C1(C(=O)NS(=O)(=O)c2cccc3ccccc23)CC1 [Example I-7, 1-(2,6-dimethoxyphenyl)-N-(naphthalene-1-sulfonyl)cyclopropane-1-carboxamide] | 3 to 10 | +++ (≥350) | < 3 | > 150 |
| COc1ccc(C2CCC2)cc1C1(C(=O)NS(=O)(=O)c2cccc3c2CCCN3)CCC1 [Example I-10, 1-(5-cyclobutyl-2-methoxyphenyl)-N-(1,2,3,4-tetrahydroquinoline-5-sulfonyl)cyclobutane-1-carboxamide] | 3 to 10 | +++ (≥350) | < 3 | > 150 |
| COc1ncc(C)cc1C1(C(=O)NS(=O)(=O)c2cccc3ccccc23)CC1 [Example I-15, 1-(2-methoxy-5-methylpyridin-3-yl)-N-(naphthalene-1-sulfonyl)cyclopropane-1-carboxamide] | 3 to 10 | +++ (≥350) | 3 to 10 | > 150 |
| COc1ccc(C2CCC2)cc1C1(C(=O)NS(=O)(=O)c2cccc3c2CCCN3)CC1 [Example I-16, 1-(5-cyclobutyl-2-methoxyphenyl)-N-(1,2,3,4-tetrahydroquinoline-5-sulfonyl)cyclopropane-1-carboxamide] | 3 to 10 | +++ (≥350) | < 3 | > 150 |
| COc1ccc(C2CCC2)cc1C1(C(=O)NS(=O)(=O)c2cccc3ncccc23)CC1 [Example I-17, 1-(5-cyclobutyl-2-methoxyphenyl)-N-(quinoline-5-sulfonyl)cyclopropane-1-carboxamide] | < 3 | +++ (≥350) | < 3 | > 150 |
| COc1ccc(Br)cc1C1(C(=O)NS(=O)(=O)c2cccc3ncccc23)CC1 [Example I-18, 1-(5-bromo-2-methoxyphenyl)-N-(quinoline-5-sulfonyl)cyclopropane-1-carboxamide] | < 3 | +++ (≥350) | < 3 | > 150 |
| COc1ncc(C2CCC2)cc1C1(C(=O)NS(=O)(=O)c2cccn3nccc23)CC1 [Example I-19, 1-(5-cyclobutyl-2-methoxypyridin-3-yl)-N-(pyrazolo[1,5-a]pyridine-4-sulfonyl)cyclopropane-1-carboxamide] | < 3 | +++ (≥350) | < 3 | > 150 |
| COc1ncc(C2CCC2)cc1C1(C(=O)NS(=O)(=O)c2cccc3ccn(C)c23)CC1 [Example I-20, 1-(5-cyclobutyl-2-methoxypyridin-3-yl)-N-(1-methyl-1H-indole-7-sulfonyl)cyclopropane-1-carboxamide] | < 3 | +++ (≥350) | < 3 | > 150 |
| COc1ncc(C2CCC2)cc1C1(C(=O)NS(=O)(=O)c2cccc3[nH]ccc23)CC1 [Example I-21, 1-(5-cyclobutyl-2-methoxypyridin-3-yl)-N-(1H-indole-4-sulfonyl)cyclopropane-1-carboxamide] | < 3 | +++ (≥350) | < 3 | > 150 |
| COc1ncc(C(F)(F)F)cc1C1(C(=O)NS(=O)(=O)c2cccc3[nH]ccc23)CC1 [Example I-22, N-(1H-indole-4-sulfonyl)-1-[2-methoxy-5-(trifluoromethyl)pyridin-3-yl]cyclopropane-1-carboxamide] | 3 to 10 | +++ (≥350) | < 3 | > 150 |
| COc1ccc(C2CCC2)cc1C1(C(=O)NS(=O)(=O)c2cccn3nccc23)CCC1 [Example I-23, 1-(5-cyclobutyl-2-methoxyphenyl)-N-(pyrazolo[1,5-a]pyridine-4-sulfonyl)cyclobutane-1-carboxamide] | 3 to 10 | +++ (≥350) | < 3 | > 150 |
| COc1ccc(C2CCC2)cc1C1(C(=O)NS(=O)(=O)c2cccc3ncn(C)c23)CCC1 [Example I-24, 1-(5-cyclobutyl-2-methoxyphenyl)-N-(1-methyl-1H-benzimidazole-7-sulfonyl)cyclobutane-1-carboxamide] | < 3 | +++ (≥350) | < 3 | > 150 |
| COc1ccc(C2CCC2)cc1C1(C(=O)NS(=O)(=O)c2cccc3cnn(C)c23)CCC1 [Example I-25, 1-(5-cyclobutyl-2-methoxyphenyl)-N-(1-methyl-1H-indazole-7-sulfonyl)cyclobutane-1-carboxamide] | < 3 | +++ (≥350) | < 3 | > 150 |
| COc1ccc(C2CC2)cc1C1(C(=O)NS(=O)(=O)c2cccc3c2CCCN3)CCC1 [Example I-27, 1-(5-cyclopropyl-2-methoxyphenyl)-N-(1,2,3,4-tetrahydroquinoline-5-sulfonyl)cyclobutane-1-carboxamide] | 3 to 10 | +++ (≥350) | < 3 | > 150 |

Continued, values first:

| EC50 [1] [µM] | Maximum % activity (with co-corrector) (with co-corrector) | EC50 [2] [µM] | Emax (without co-corrector) [%] | Compound |
| --- | --- | --- | --- | --- |
| < 3 | +++ (≥350) | < 3 | > 150 | COc1ncc(C(F)(F)F)cc1C1(C(=O)NS(=O)(=O)c2cccc3ccccc23)CC1 [Example I-8, 1-[2-methoxy-5-(trifluoromethyl)pyridin-3-yl]-N-(naphthalene-1-sulfonyl)cyclopropane-1-carboxamide] |
| < 3 | +++ (≥350) | < 3 | > 150 | COc1ccc(Br)cc1C1(C(=O)NS(=O)(=O)c2cccc3c2CCCN3)CCC1 [Example I-9, 1-(5-bromo-2-methoxyphenyl)-N-(1,2,3,4-tetrahydroquinoline-5-sulfonyl)cyclobutane-1-carboxamide] |
| < 3 | +++ (≥350) | < 3 | > 150 | COc1ccc(Br)cc1C1(C(=O)NS(=O)(=O)c2cccc3c2CCCN3)CC1 [Example I-11, 1-(5-bromo-2-methoxyphenyl)-N-(1,2,3,4-tetrahydroquinoline-5-sulfonyl)cyclopropane-1-carboxamide] |
| < 3 | +++ (≥350) | < 3 | > 150 | COc1ccc(C2CC2)cc1C1(C(=O)NS(=O)(=O)c2cccc3ccccc23)CC1 [Example I-12, 1-(5-cyclopropyl-2-methoxyphenyl)-N-(naphthalene-1-sulfonyl)cyclopropane-1-carboxamide] |
| < 3 | – | < 3 | – | COc1ccc(C2CC2)cc1C1(C(=O)NS(=O)(=O)c2cccc3ncccc23)CC1 [Example I-13, 1-(5-cyclopropyl-2-methoxyphenyl)-N-(quinoline-5-sulfonyl)cyclopropane-1-carboxamide] |
| < 3 | +++ (≥350) | < 3 | > 150 | COc1ccc(OC(C)C)cc1C1(C(=O)NS(=O)(=O)c2cccc3ncccc23)CC1 [Example I-14, 1-{2-methoxy-5-[(propan-2-yl)oxy]phenyl}-N-(quinoline-5-sulfonyl)cyclopropane-1-carboxamide] |
